The values that follow come from patent US7173012B2, “Hypoglycaemic peptides and methods of use thereof” (International Diabetes Institute, priority 2001, dated 2007).

“Also recorded” adds a separate entry of the source. Ends that are not written are not given here.

Series [1] in a line: Isoaspartate (β-isomerised) formation in synthetic peptides, by reverse-phase HPLC. It counts as physicochemical. The note with it: β-isomerised peptide obtained after synthesis (piperidine deprotection, TFA cleavage), HPLC 214 nm. Here is the method: A mixture of synthetic peptides (Gly-His-Thr-Asp, Val-His-Thr-Asp and Asp-His-Thr-Gly) and their corresponding β-isomerised formation (Gly-His-Thr-βAsp, Val-His-Thr-βAsp and βAsp-His-Thr-Gly) were separated by reverse-phase HPLC and eluted with an isocritic running with 2% buffer B (buffer A is 0.1% trifluoroacetic acid in H2O) at 1 ml/min over 30 min. Peptides were determined by their absorbance at 214 nm.
Based on the structure of the UP-401 peptide, analogues with various sequences were synthesised for further biological characterization as shown in Table 1. All synthetic peptides were purified by RP-HPLC using a C18 column and characterized by mass spectrometry. During synthesis, the peptide chains were treated with base (piperidine) in deprotection steps and then eventually treated with TFA at cleavage steps.
Table 2 and FIG. 5 outline the amino acid sequence of the UP-401 peptide and its analogues, and the ratio of nonisomerized and β-isomerised peptide obtained in each.

The test system of series [2] is male Zucker fatty (fa/fa) rats. As to the kind of experiment: In vivo hypoglycaemic test: blood glucose after i.v. peptide then insulin. Details: species or system rat; blood glucose level reduced to a maximum of / Reduction of blood glucose level: unit not given here. The note with it: for in vivo hypoglycaemic effect on blood glucose levels (in words): i.v., overnight-fasted Zucker fatty rats, compared with saline control or comparator peptide. On the procedure:
In vivo tests of the hypoglycaemic peptides were performed on overnight-fasted male Zucker fatty (fa/fa) rats 45 min after induction of anaesthesia with an intraperitoneal injection of sodium pentobarbitone at a dose 60 mg/kg body weight. Basal blood glucose samples were collected from the cut tip of the tail. The two femoral veins in the anaesthetised animals were then exposed, followed immediately by an intravenous injection of saline (control) or peptide into the left femoral vein. Approximately 15 min after the administration of peptide or saline via the left femoral vein, insulin was injected via the right femoral vein. […] Blood glucose levels of the collected samples were measured immediately by the glucose oxidation method using a Yellow Springs YSI modal 2300 STAT Glucose Analyzer (Yellow Spring, Ohio).
(§1) Experimental procedures for the in vitro and in vivo assays were described in Example 1. In principle, the rate of conversion from glucose into glycogen in isolated hemidiaphragm muscle was used as the index to determine the in vitro activity of peptides (6). The in vivo tests for the peptides were performed on Zucker fatty (fa/fa) rats by i.v. administration of peptides and the reduction of the blood glucose levels was measured and regarded as the index of the hypoglycaemic effect (18).

Series [3] has as its system isolated rat hemidiaphragm muscle. As to the kind of experiment: Glycogen synthesis in isolated rat hemidiaphragm muscle (incorporation of 14C-glucose into glycogen, in presence of insulin). In kind it is cell-based. The note with it: for biological activity on insulin-stimulated glycogen synthesis (in words): isolated rat muscle, FIG. 3 / FIG. 7. Here is the method:
Glycogen synthesis in isolated rat hemidiaphragm muscle was measured by the rate of incorporation of radioactive glucose into glycogen (16). Overnight-fasted male albino Wistar rats (20 week old) were killed by decapitation and their hemidiaphragm tissues immediately removed. The hemidiaphragm tissues were pre-incubated for 30 min at 37° C., in Kreb's-Ringer bicarbonate buffer (KRB) containing 1.0% bovine serum albumin BSA, and 1.0 mg/ml glucose gassed pH 7.4. After pre-incubation, the tissues were further incubated for 60 min at 37° C. in 2 ml of incubation buffer in the presence of insulin at a concentration 0.33 μu/ml and the label ^14C-glucose at 0.28 μCi/ml under an atmosphere of carbogen with or without peptide of various concentrations. At the end of the incubation, the tissues were removed and rinsed with cold distilled water, blotted and placed in a plastic centrifuge tubes for glycogen extraction with 30% KOH 10 μl/mg tissue for 5 min in a boiling water bath. The tissue ^14C-glycogen was precipitated with saturated Na2SO4 and absolute alcohol. After centrifugation at 4000×G at 4° C. for 10 min, the supematant was discarded and the precipitate washed twice by resuspending in 66% ethanol and centrifuged as before. The final glycogen precipitate was dissolved in distilled water 30 μl/mg and 1.0 ml of the solution was transferred to a counting vial containing a triton scintillator (8 ml). Radioactivity was determined in a Wallac LKB counter from Pharmacia-Wallac Oy, (Turku, Finland). The total glycogen content in the diaphragm muscle was calculated according to the method of Van Handel (17).
as §1

Where [4] appears, read: 3 mg/kg body weight, Example 1, FIG. 4.

Gly-His-Thr-Asp-NH2 (GHTD-NH2) [UP-401]: in series [1], the Isoasp is listed as 45.2. The “hypoglycaemic action diminished after” value in series [2] (setting [4]) was 90 min. Moreover, in series [2] (setting [4]), the “in vivo hypoglycaemic action found after the injection (onset)” value was determined as 15 min. Further, in series [2] (setting [4]), the “time of maximal hypoglycaemic effect after treatment” value is 45 min. The “time of maximal decrease in blood glucose level after treatment” value in series [2] (3 mg/kg, Example 2) turned out to be 60 min. The “Reduction of blood glucose level” value in series [2] (3 mg, 15 min) is −0.50; in series [2] (3 mg, 30 min) it was −0.91; in series [2] (3 mg, 45 min) it was −1.1; in series [2] (3 mg, 60 min), −0.93; in series [2] (3 mg, 75 min), −0.64; in series [2] (3 mg, 90 min), −0.08. Moreover, the “in vivo hypoglycaemic effect on blood glucose levels (in words)” value in series [2] is given as “significant”. In series [3] (isolated rat hemi-diaphragm, with insulin, synthetic peptide 0.1 μM (FIG. 3)), the “increase of glycogen synthesis” value was 36.3%. Also, the “biological activity on insulin-stimulated glycogen synthesis (in words)” value (“biological activity … (in words)” for short) in series [3] is reported as “better insulin-potentiating effect than that of the known insulin-potentiating hGH(6–13) peptide”.

In turn, Val-His-Thr-Asp-NH2 (VHTD-NH2) [UP-402] came in with an Isoasp in series [1] of 48.3. Besides, the “blood glucose level reduced to a maximum of” value in series [2] (3 mg/kg body weight) was 0.95. Also, the “Reduction of blood glucose level” value in series [2] (3 mg, 15 min) was −0.26; in series [2] (3 mg, 30 min), −0.62; in series [2] (3 mg, 45 min) it was −1.21; in series [2] (3 mg, 60 min), −1.25; in series [2] (3 mg, 75 min), −0.64; in series [2] (3 mg, 90 min), 0.05. Also, the “Reduction of blood glucose level” value in series [2] (4.5 mg, 15 min) is given as −0.43; in series [2] (4.5 mg, 30 min), −1.03; in series [2] (4.5 mg, 45 min) it was −1.50; in series [2] (4.5 mg, 60 min), −1.45; in series [2] (4.5 mg, 75 min), −1.52; in series [2] (4.5 mg, 90 min), −1.35. Further, the “Reduction of blood glucose level” value in series [2] (4.5 mg, 120 min) is 0.07. The “effect on blood glucose prolonged to” value in series [2] (4.5 mg/kg body weight, FIG. 8) came to 120 min. The higher glycogen synthesis in series [3] (in vitro, insulin-stimulated, isolated rat muscle (FIG. 7)) is listed as 68%. The “biological activity … (in words)” value in series [3] is recorded as “much higher than that of any other peptide”.

With “Val-His-Thr-isoAsp-NH2 (VHTX; HELM PEPTIDE1{V.H.T.[O=C(O)[C@H](CC(=O)[*:2])N[*:1]].[am]}$$$$V2.0; N-terminus assumed; SMILES CC(C)[C@H](N)C(=O)N[C@@H](Cc1c[nH]cn1)C(=O)N[C@H](C(=O)N[C@@H](CC(N)=O)C(=O)O)[C@@H](C)O) [UP-406]”, the “in vivo hypoglycaemic effect on blood glucose levels (in words)” value in series [2] was “No significant difference”. Also, the “biological activity … (in words)” value in series [3] is reported as “reduced the potency”. The “biological activity of isoaspartate peptide, reduced to (relative to Val-His-Thr-Asp)” value in series [3] (peptide concentration of 0.1 mM, insulin-stimulated glycogen synthesis) was determined as 46%.

Asp-His-Thr-Gly-NH2 (DHTG-NH2) [UP-403] displayed an Isoasp in series [1] of 75.2. Besides, the figures for the “biological activity … (in words)” value in series [3] and in series [3] (listed as Asp-His-Thr-Gly) were “reduced the peptide activity; also recorded: reduced the potency” and “also detected”, respectively.

As for “isoAsp-His-Thr-Gly-NH2 (XHTG; HELM PEPTIDE1{[N[C@@H](CC(=O)[*:2])C(=O)O].H.T.G.[am]}$$$$V2.0; N-terminus assumed; SMILES C[C@@H](O)[C@H](NC(=O)[C@H](Cc1c[nH]cn1)NC(=O)C[C@H](N)C(=O)O)C(=O)NCC(N)=O) [UP-407]”, the “biological activity … (in words)” value in series [3] was “reduced the peptide activity”; in series [3] (listed as βAsp-His-Thr-Gly) it was “also detected”.

For the substance Val-His-Thr-Pro-NH2 (VHTP-NH2) [UP-404], the “Reduction of blood glucose level” value is recorded as −0.21 in series [2] (3 mg, 15 min); −0.54 in series [2] (3 mg, 30 min); −0.77 in series [2] (3 mg, 45 min); −0.95 in series [2] (3 mg, 60 min); 0.23 in series [2] (3 mg, 75 min); −0.03 in series [2] (3 mg, 90 min). Also, the results for the “biological activity … (in words)” value in series [3] and in series [3] (listed as Val-His-Thr-Pro) were “reduced the potency” and “no appreciable stimulation”, respectively.
